US8637525B2, “Compounds for the reduction of beta-amyloid production” (Bristol-Myers Squibb Company, priority 2009, dated 2014)
Read-outs that look alike come from different tables or passages of the source.

System: Aβ1-42 production
Experiment: Cellular assay for inhibition of Aβ1-42 production (H4 APP751 SWE clone 8.20)
Format: cell-based
Conditions: H4 APP751 SWE clone 8.20 cells, 19 h incubation
How it was run: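 Cells incubate with compound for 19 h (37 °C, 5% CO2), the plate is briefly spun, and antibody mix is added straight to the wells: Wallac-conjugated 565 against the Aβ42 C-terminal neoepitope and APC-conjugated 26D6 against the Aβ N-terminus. After overnight sealing at 4 °C, signal is counted and IC50 fitted.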

[1] = 19 h, class symbols, read-out: Activity Rating (Aβ42 cellular IC50)
[2] = class symbols, read-out: Activity Rating (Aβ42 cellular IC50)
[3] = 19 h, read-out: Activity Rating (Aβ42 cellular IC50), numeric value

Compound	IC50 [1] [µM]	IC50 [2] [µM]	also measured
CNc1nc(Nc2ccc(C#N)cc2)nc2c1CN(S(C)(=O)=O)CC2c1ccc(F)cc1 (stereo not shown) [Example 207, 4-(8-(4-fluorophenyl)-4-(methylamino)-6-(methylsulfonyl)-5,6,7,8-tetrahydropyrido[4,3-d]pyrimidin-2-ylamino)benzonitrile]	0.1 to 1	–	–
CCNc1nc(Nc2ccc(-n3ncnc3C)c(F)c2)nc2c1COCC2c1ccc(F)cc1 (stereo not shown) [Example 59A, N4-ethyl-N2-(3-fluoro-4-(5-methyl-1H-1,2,4-triazol-1-yl)phenyl)-8-(4-fluorophenyl)-7,8-dihydro-5H-pyrano[4,3-d]pyrimidine-2,4-diamine]	0.0015 to 0.0099	–	–
CNc1nc(Nc2ccc(-n3cnc(C)c3)c(OC)c2)nc2c1COCC2c1ccc(Cl)cc1 (single isomer, unassigned) [Example 70A, 8-(4-chlorophenyl)-N^2-(3-methoxy-4-(4-methyl-1H-imidazol-1-yl)phenyl)-N^4-methyl-7,8-dihydro-5H-pyrano[4,3-d]pyrimidine-2,4-diamine]	–	0.0015 to 0.0099	–
COc1cc(Nc2nc3c(c(N4CC[C@@H](F)C4)n2)COCC3c2ccc(OC(F)(F)F)cc2)ccc1-n1cnc(Cl)c1 (stereo partly shown) [Example 123B]	–	–	IC50 [3]: 0.37 µM
COc1cc(Nc2nc3c(c(N4CC(F)(F)C4)n2)CCC3c2ccc(OC(F)(F)F)cc2)ccc1-n1cnc(Cl)c1 (single isomer, unassigned) [Example 99B, N-(4-(4-chloro-1H-imidazol-1-yl)-3-methoxyphenyl)-4-(3,3-difluoroazetidin-1-yl)-7-(4-(trifluoromethoxy)phenyl)-6,7-dihydro-5H-cyclopenta[d]pyrimidin-2-amine]	–	–	IC50 [3]: 0.19 µM
CCNc1nc(Nc2ccc(-n3cnc(Cl)c3)c(OC)c2)nc2c1COCC2c1ccc(F)cc1 (racemic) [Example 56, N2-(4-(4-chloro-1H-imidazol-1-yl)-3-methoxyphenyl)-N4-ethyl-8-(4-fluorophenyl)-7,8-dihydro-5H-pyrano[4,3-d]pyrimidine-2,4-diamine]	0.01 to 0.1	–	–
CCNc1nc(Nc2ccc(-n3cnc(Cl)c3)c(OC)c2)nc2c1COC2c1ccc(F)cc1 (single isomer, unassigned) [Example 75B, N^2-(4-(4-chloro-1H-imidazol-1-yl)-3-methoxyphenyl)-N^4-ethyl-7-(4-fluorophenyl)-5,7-dihydrofuro[3,4-d]pyrimidine-2,4-diamine]	–	0.01 to 0.1	–
CCNc1nc(Nc2ccc(-n3cnc(Cl)c3)c(OC)c2)nc2c1CN(S(C)(=O)=O)CC2c1ccc(F)cc1 (stereo not shown) [Example 155A, N2-(4-(4-chloro-1H-imidazol-1-yl)-3-methoxyphenyl)-N4-ethyl-8-(4-fluorophenyl)-6-(methylsulfonyl)-5,6,7,8-tetrahydropyrido[4,3-d]pyrimidine-2,4-diamine]	0.0015 to 0.0099	–	–
COc1cc(Nc2nc3c(c(N4CC[C@H](F)C4)n2)COC3c2ccc(F)cc2)ccc1-n1cnc(Cl)c1 (single isomer, unassigned) [Example 77]	–	0.01 to 0.1	–
Cc1ccc(C(C)C)cc1Nc1nc(Nc2ccc(C#N)cc2)nc2c1CCC2c1ccccc1 (stereo not shown) [Example 215A, 4-(4-(5-isopropyl-2-methylphenylamino)-7-phenyl-6,7-dihydro-5H-cyclopenta[d]pyrimidin-2-ylamino)benzonitrile]	> 1	–	–
CCN(C)c1nc(Nc2ccc(-n3cnc(Cl)c3)c(OC)c2)nc2c1COCC2c1ccc(F)cc1 (stereo not shown) [Example 62B, N2-(4-(4-chloro-1H-imidazol-1-yl)-3-methoxyphenyl)-N4-ethyl-8-(4-fluorophenyl)-N4-methyl-7,8-dihydro-5H-pyrano[4,3-d]pyrimidine-2,4-diamine]	–	–	IC50 [3]: 0.086 µM
CCNc1nc(Nc2ccc(-n3ncnc3C)c(F)c2)nc2c1CN(C)CC2c1ccccc1 (stereo not shown) [Example 153, N4-ethyl-N2-(3-fluoro-4-(5-methyl-1H-1,2,4-triazol-1-yl)phenyl)-6-methyl-8-phenyl-5,6,7,8-tetrahydropyrido[4,3-d]pyrimidine-2,4-diamine]	0.01 to 0.1	–	–
COc1cc(Nc2nc3c(c(N4CC(F)(F)C4)n2)COC3c2ccc(F)cc2)ccc1-n1cnc(Cl)c1 (stereo not shown) [Example 80A, N-(4-(4-chloro-1H-imidazol-1-yl)-3-methoxyphenyl)-4-(3,3-difluoroazetidin-1-yl)-7-(4-fluorophenyl)-5,7-dihydrofuro[3,4-d]pyrimidin-2-amine]	0.01 to 0.1	–	–
CNc1nc(Nc2ccc(-n3cnc(C)n3)c(F)c2)nc2c1CCC2c1ccc(F)cc1 (stereo not shown) [Example 35, N^2-(3-fluoro-4-(3-methyl-1H-1,2,4-triazol-1-yl)phenyl)-7-(4-fluorophenyl)-N^4-methyl-6,7-dihydro-5H-cyclopenta[d]pyrimidine-2,4-diamine]	0.0015 to 0.0099	–	–
CCNc1nc(Nc2ccc(-n3cnc(Cl)c3)c(OC)c2)nc2c1CN(C(C)=O)CC2c1ccccc1 (stereo not shown) [Example 137, 1-(2-(4-(4-chloro-1H-imidazol-1-yl)-3-methoxyphenylamino)-4-(ethylamino)-8-phenyl-7,8-dihydropyrido[4,3-d]pyrimidin-6(5H)-yl)ethanone]	–	–	IC50 [3]: 0.011 µM
CCNc1nc(Nc2ccc(-n3cnc(C)n3)c(F)c2)nc2c1CN(C(=O)C1CC1)CC2c1ccccc1 (stereo not shown) [Example 143, cyclopropyl(4-(ethylamino)-2-(3-fluoro-4-(3-methyl-1H-1,2,4-triazol-1-yl)phenylamino)-8-phenyl-7,8-dihydropyrido[4,3-d]pyrimidin-6(5H)-yl)methanone]	0.01 to 0.1	–	–
CNc1nc(Nc2ccc(Cl)c(OC)c2)nc2c1CCC2c1ccccc1 (stereo not shown) [Example 220, N2-(4-chloro-3-methoxyphenyl)-N4-methyl-7-phenyl-6,7-dihydro-5H-cyclopenta[d]pyrimidine-2,4-diamine]	–	–	IC50 [3]: 0.55 µM

The next lines start with results.

IC50 [1] [µM]	IC50 [2] [µM]	Compound	also measured
0.01 to 0.1	–	COc1cc(Nc2nc3c(c(N4CC(C)(OC)C4)n2)CCC3c2ccc(F)cc2)ccc1-n1cnc(Cl)c1 (stereo not shown) [Example 191, N-(4-(4-chloro-1H-imidazol-1-yl)-3-methoxyphenyl)-7-(4-fluorophenyl)-4-(3-methoxy-3-methylazetidin-1-yl)-6,7-dihydro-5H-cyclopenta[d]pyrimidin-2-amine]	–
–	0.1 to 1	CCC1CCCN1c1nc(Nc2ccc(-n3cnc(Cl)c3)c(OC)c2)nc2c1CCC2c1ccc(F)cc1 (single isomer, unassigned) [Example 23B, N-(4-(4-chloro-1H-imidazol-1-yl)-3-methoxyphenyl)-4-(2-ethylpyrrolidin-1-yl)-7-(4-fluorophenyl)-6,7-dihydro-5H-cyclopenta[d]pyrimidin-2-amine]	–
–	0.0015 to 0.0099	CCN(C)c1nc(Nc2ccc(-n3cnc(Cl)c3)c(OC)c2)nc2c1COCC2c1ccccc1 (single isomer, unassigned) [Example 52A, N^2-(4-(4-Chloro-1H-imidazol-1-yl)-3-methoxyphenyl)-N^4-ethyl-N^4-methyl-8-phenyl-7,8-dihydro-5H-pyrano[4,3-d]pyrimidine-2,4-diamine]	–
0.01 to 0.1	–	COc1cc(Nc2ncc3c(n2)C(c2ccccc2)CCC3)ccc1-n1cnc(Cl)c1 (stereo not shown) [Example 125, N-(4-(4-chloro-1H-imidazol-1-yl)-3-methoxyphenyl)-8-phenyl-5,6,7,8-tetrahydroquinazolin-2-amine]	–
–	0.0015 to 0.0099	COc1cc(Nc2nc3c(c(N4CCC4)n2)CCC3c2ccccc2)ccc1-n1cnc(Cl)c1 (single isomer, unassigned) [Example 6A, 4-(azetidin-1-yl)-N-(4-(4-chloro-1H-imidazol-1-yl)-3-methoxyphenyl)-7-phenyl-6,7-dihydro-5H-cyclopenta[d]pyrimidin-2-amine]	–
–	0.0015 to 0.0099	CNc1nc(Nc2ccc(-n3cnc(Cl)c3)c(OC)c2)nc2c1CCC2c1ccc(OC(F)(F)F)cc1 (single isomer, unassigned) [Example 97A, N^2-(4-(4-chloro-1H-imidazol-1-yl)-3-methoxyphenyl)-N^4-methyl-7-(4-(trifluoromethoxy)phenyl)-6,7-dihydro-5H-cyclopenta[d]pyrimidine-2,4-diamine]	–
0.0015 to 0.0099	–	CNc1nc(Nc2ccc(-n3cnc(Cl)c3)c(OC)c2)nc2c1CN(S(=O)(=O)C1CC1)CC2c1ccccc1 (stereo not shown) [Example 130, N2-(4-(4-chloro-1H-imidazol-1-yl)-3-methoxyphenyl)-6-(cyclopropylsulfonyl)-N4-methyl-8-phenyl-5,6,7,8-tetrahydropyrido[4,3-d]pyrimidine-2,4-diamine]	–
–	0.0015 to 0.0099	CNc1nc(Nc2ccc(-n3cnc(Cl)c3)c(OC)c2)nc2c1CCC2c1cc(F)cc(F)c1 (stereo not shown) [Example 102A, N^2-(4-(4-Chloro-1H-imidazol-1-yl)-3-methoxyphenyl)-7-(3,5-difluorophenyl)-N^4-methyl-6,7-dihydro-5H-cyclopenta[d]pyrimidine-2,4-diamine]	–
–	0.01 to 0.1	COc1cc(Nc2nc3c(c(N(C)C)n2)CCC3c2ccccc2)ccc1-n1cnc(Cl)c1 (single isomer, unassigned) [Example 4B, N^2-(4-(4-chloro-1H-imidazol-1-yl)-3-methoxyphenyl)-N^4,N^4-dimethyl-7-phenyl-6,7-dihydro-5H-cyclopenta[d]pyrimidine-2,4-diamine]	–
–	0.01 to 0.1	COc1cc(Nc2nc3c(c(N4CCCC4C)n2)CCC3c2ccc(F)cc2)ccc1-n1cnc(Cl)c1 (single isomer, unassigned) [Example 20B, N-(4-(4-chloro-1H-imidazol-1-yl)-3-methoxyphenyl)-7-(4-fluorophenyl)-4-(2-methylpyrrolidin-1-yl)-6,7-dihydro-5H-cyclopenta[d]pyrimidin-2-amine]	–
0.0015 to 0.0099	–	CNc1nc(Nc2ccc(-n3cnc(Cl)c3)c(OC)c2)nc2c1CCC2c1ccc(Cl)cc1 (racemic) [Example 94, N^2-(4-(4-Chloro-1H-imidazol-1-yl)-3-methoxyphenyl)-7-(4-chlorophenyl)-N^4-methyl-6,7-dihydro-5H-cyclopenta[d]pyrimidine-2,4-diamine]	–
